Laboratory results published in US10695296B2, “Formulations, methods, kit, and dosage forms for improved stability of an active pharmaceutical ingredient” (Asana BioSciences, LLC, priority 2017, dated 2020).
Where two headings read alike, the source gives them in different places.

Assay: PK characteristics in humans (plasma, LC/MS/MS)
Assay type: in vivo, human
Settings: for Cmax / half-life / Tmax / AUC(0-t): human, plasma; for Cmax: read-out: Cmax; for Tmax: read-out: Tmax
Protocol: A pharmaceutical formulation of the disclosure comprising the active ingredient N-(3-(2-(6-amino-4-(trifluoromethyl)pyridin-3-yl)-4-morpholinopyrido[3,2-d]pyrimidin-6-yl)-2-fluorophenyl)-3-fluoropropane-1-sulfonamide was evaluated for safety/tolerability and preliminary efficacy in eligible human subjects with advanced solid tumors, and the pharmacokinetic (PK) profile of the active ingredient was investigated for each subject. Eligibility criteria for inclusion in this study included:
Fifteen eligible patients were enrolled in total daily dose levels ranging from 10-800 mg per day of the active ingredient, provided as 10-mg, 20-mg, 80-mg and 120-mg tablets for oral administration. Dose escalation is ongoing. All study medication supplies were provided by Asana BioSciences, LLC (Bridgewater, N.J.). The tablets were administered orally every 12-24 hours on an empty stomach (either 1 hour before or 2 hours after a meal or snack) with approximately 240 mL of water. On study days in which there was a single plasma PK sample taken, the subject was instructed to fast for at least 2 hours prior to collection of the PK sample. On study days with multiple plasma PK samples taken, the subject was instructed to fast overnight (at least 8 hours prior to study drug administration) and remain fasting for 2 hours after study drug administration. The date and time of the dose(s) taken prior to or on PK sampling days were collected by the study site or catalogued via a diary card provided to the subject.
An ultra performance liquid chromatographic method was used for the determination of the active ingredient in human EDTA K2 plasma. This method was validated over an analytical range of 0.5 to 500 ng/mL. Calibration standards (CS) and quality control (QC) samples at three or four levels of concentrations were prepared fresh from the appropriate working solutions which were stored at −20° C. The human EDTA K2 plasma used for the preparation of CS and QC samples was obtained from Bioreclamation (Westbury, Pa., USA) and analyzed to determine possible interference with the analyte or the internal standard, and no significant interference was observed. The following parameters were used to determine analyte levels in the plasma samples: […]

[1] = oral, 40 mg, Day 15, 40 mg, n=2, mean
[2] = oral, 40 mg, steady state, 40 QD mg, n=2, mean, cancer patients
[3] = oral, 80 mg, Day 1, 80 mg, n=2, mean
[4] = oral, 80 mg, Day 15, 80 mg, n=2, mean
[5] = oral, 80 mg, steady state, 80 QD mg, n=2, mean, cancer patients
[6] = oral, 240 mg, Day 1, 240 mg, n=2, mean
[7] = oral, 240 mg, Day 15, 240 mg, n=2, mean
[8] = oral, 240 mg, steady state, 240 QD mg, n=2, mean, cancer patients
[9] = oral, 400 mg, Day 1, 400 bid mg, individual subjects
[10] = oral, 400 mg, Day 1, 400 bid mg, mean
[11] = oral, 400 mg, Day 15, 400 QD mg, n=2, mean
[12] = oral, 400 mg, Day 15, 400 bid mg, n=1
[13] = oral, 400 mg, steady state, 400 BID mg, n=1, cancer patients
[14] = oral, 400 mg, steady state, 400 QD mg, n=2, mean, cancer patients

Nc1cc(C(F)(F)F)c(-c2nc(N3CCOCC3)c3nc(-c4cccc(NS(=O)(=O)CCCF)c4F)ccc3n2)cn1 [CMPD A, N-(3-(2-(6-amino-4-(trifluoromethyl)pyridin-3-yl)-4-morpholinopyrido[3,2-d]pyrimidin-6-yl)-2-fluorophenyl)-3-fluoropropane-1-sulfonamide]
Cmax [1]: 348 ng/mL
half-life (oral, 40 mg, Day 15, 40 mg, n=2, mean, read-out: T1/2 (converted)): 35.1 h
Tmax [1]: 4 h
AUC(0-t) (oral, 40 mg, steady state, 40 QD mg, n=2, mean, cancer patients, read-out: AUC0-24h): 5890 ng·h/mL
Cmax [2]: 348 ng/mL
Tmax [2]: 4 h
half-life (oral, 80 mg, Day 1, 80 mg, individual subject (other NC), read-out: T1/2 (converted)): 22.4 h
Cmax (oral, 80 mg, Day 1, 80 mg, individual subjects): 470 ng/mL
AUC(0-t) (oral, 80 mg, Day 1, 80 mg, n=2, mean, read-out: AUC0-24): 6050 ng·h/mL
Cmax [3]: 384 ng/mL
Tmax [3]: 14 h
half-life (oral, 80 mg, Day 15, 80 mg, individual subject (other NC), read-out: T1/2 (converted)): 48.7 h
AUC(0-t) (oral, 80 mg, Day 15, 80 mg, individual subjects, read-out: AUC0-24): 19000 ng·h/mL
Cmax (oral, 80 mg, Day 15, 80 mg, individual subjects): 931 ng/mL
AUC(0-t) (oral, 80 mg, Day 15, 80 mg, n=2, mean, read-out: AUC0-24): 20100 ng·h/mL
Cmax [4]: 1060 ng/mL
Tmax [4]: 14 h
AUC(0-t) (oral, 80 mg, steady state, 80 QD mg, n=2, mean, cancer patients, read-out: AUC0-24h): 20100 ng·h/mL
Cmax [5]: 1060 ng/mL
Tmax [5]: 14 h
AUC(0-t) (oral, 120 mg, Day 1, 120 mg, n=3, mean, read-out: AUC0-24): 6660 ng·h/mL
Cmax (oral, 120 mg, Day 1, 120 mg, n=3, mean): 509 ng/mL
half-life (oral, 120 mg, Day 1, 120 mg, n=3, mean, read-out: T1/2 (converted)): 24.9 h
Tmax (oral, 120 mg, Day 1, 120 mg, n=3): 4 h
AUC(0-t) (oral, 120 mg, Day 15, 120 mg, n=3, mean, read-out: AUC0-24): 10100 ng·h/mL
Cmax (oral, 120 mg, Day 15, 120 mg, n=3, mean): 728 ng/mL
half-life (oral, 120 mg, Day 15, 120 mg, n=3, mean, read-out: T1/2 (converted)): 24.1 h
Tmax (oral, 120 mg, Day 15, 120 mg, n=3): 4 h
Tmax (oral, 120 mg, steady state, 120 QD mg, n=3, cancer patients): 4 h
AUC(0-t) (oral, 120 mg, steady state, 120 QD mg, n=3, mean, cancer patients, read-out: AUC0-24h): 10100 ng·h/mL
Cmax (oral, 120 mg, steady state, 120 QD mg, n=3, mean, cancer patients): 728 ng/mL
AUC(0-t) (oral, 240 mg, Day 1, 240 mg, n=2, mean, read-out: AUC0-24): 6930 ng·h/mL
Cmax [6]: 520 ng/mL
half-life (oral, 240 mg, Day 1, 240 mg, n=2, mean, read-out: T1/2 (converted)): 17.5 h
Tmax [6]: 5 h
Tmax (oral, 240 mg, Day 15, 240 mg, individual subjects): 2 h
AUC(0-t) (oral, 240 mg, Day 15, 240 mg, n=2, mean, read-out: AUC0-24): 14900 ng·h/mL
Cmax [7]: 954 ng/mL
half-life (oral, 240 mg, Day 15, 240 mg, n=2, mean, read-out: T1/2 (converted)): 19.7 h
Tmax [7]: 2 h
AUC(0-t) (oral, 240 mg, steady state, 240 QD mg, n=2, mean, cancer patients, read-out: AUC0-24h): 14900 ng·h/mL
Cmax [8]: 954 ng/mL
Tmax [8]: 2 h
half-life (oral, 400 mg, Day 1, 400 QD mg, individual subjects, read-out: T1/2 (converted)): 15.2 h
AUC(0-t) (oral, 400 mg, Day 1, 400 QD mg, n=2, mean, read-out: AUC0-24): 15000 ng·h/mL
Cmax (oral, 400 mg, Day 1, 400 QD mg, n=2, mean): 1070 ng/mL
half-life (oral, 400 mg, Day 1, 400 QD mg, n=2, mean, read-out: T1/2 (converted)): 15.4 h
Tmax (oral, 400 mg, Day 1, 400 QD mg, n=2): 2 h
AUC(0-t) (oral, 400 mg, Day 1, 400 bid mg, individual subjects, read-out: AUC0-24): 32100 ng·h/mL
Cmax [9]: 2330 ng/mL
half-life (oral, 400 mg, Day 1, 400 bid mg, individual subjects, read-out: T1/2 (converted)): 22.5 h
Tmax [9]: 8 h
AUC(0-t) (oral, 400 mg, Day 1, 400 bid mg, mean, read-out: AUC0-24): 26300 ng·h/mL
Cmax [10]: 1880 ng/mL
half-life (oral, 400 mg, Day 1, 400 bid mg, mean, read-out: T1/2 (converted)): 18.6 h
Tmax [10]: 6 h
AUC(0-t) (oral, 400 mg, Day 15, 400 QD mg, individual subjects, read-out: AUC0-24): 25500 ng·h/mL
Cmax (oral, 400 mg, Day 15, 400 QD mg, individual subjects): 2770 ng/mL
half-life (oral, 400 mg, Day 15, 400 QD mg, individual subjects, read-out: T1/2 (converted)): 10.1 h
AUC(0-t) (oral, 400 mg, Day 15, 400 QD mg, n=2, mean, read-out: AUC0-24): 33400 ng·h/mL
Cmax [11]: 2850 ng/mL
half-life (oral, 400 mg, Day 15, 400 QD mg, n=2, mean, read-out: T1/2 (converted)): 10.9 h
Tmax [11]: 4.5 h
AUC(0-t) (oral, 400 mg, Day 15, 400 bid mg, n=1, read-out: AUC0-24): 110000 ng·h/mL
Cmax [12]: 5900 ng/mL
Tmax [12]: 2 h
AUC(0-t) (oral, 400 mg, steady state, 400 BID mg, n=1, cancer patients, read-out: AUC0-24h): 110000 ng·h/mL
Cmax [13]: 5990 ng/mL
Tmax [13]: 2 h
AUC(0-t) (oral, 400 mg, steady state, 400 QD mg, n=2, mean, cancer patients, read-out: AUC0-24h): 33400 ng·h/mL
Cmax [14]: 2850 ng/mL
Tmax [14]: 4.5 h
half-life (po, human subjects, oral tablets, read-out: Effective t½ (converted)): ~24 h
half-life (po, human subjects, oral tablets, read-out: t1/2 (rate of elimination)): 10 to 25 h
Cmin (steady state, 10 QD mg, n=1, cancer patients): 16.0 ng/mL
Cmin (steady state, 20 QD mg, n=1, cancer patients): 76.4 ng/mL
Cmin (steady state, 40 QD mg, n=2, mean, cancer patients): 167 ng/mL
Cmin (steady state, 80 QD mg, n=2, mean, cancer patients): 614 ng/mL
Cmin (steady state, 120 QD mg, n=3, mean, cancer patients): 239 ng/mL
Cmin (steady state, 240 QD mg, n=2, mean, cancer patients): 463 ng/mL
Cmin (steady state, 400 BID mg, n=1, cancer patients): 3718 ng/mL
Cmin (steady state, 400 QD mg, n=2, mean, cancer patients): 589 ng/mL
